{"source": "patent US20260216239A1", "about": "(Arizona Board of Regents on Behalf of the University of …, priority 2020, published 2026)", "key": {"Atheris nitschei venom": {"tested_on": "Atheris nitschei venom", "assay": "Thrombelastography in human plasma of venom procoagulant activity after isolated exposure of venom to compounds", "type": "biochemical", "settings": "venom 1 μg/mL in plasma", "description": "All venom solutions without or with chemical additions in isolation were added as a 1% addition to the plasma mix used in our thrombelastographic system (see, Nielsen, V. G.; et al., Biometals 2016, 29, 913-919; Nielsen, V. G.; Losada, P. A. Basic Clin. Pharmacol. Toxicol. 2017, 120, 207-212; Nielsen, V. G.; Frank, N. J. Thromb. Thrombolysis 2019, 47, 533-539; Nielsen, V. G.; Bazzell, C. M. J. Thromb. Thrombolysis 2017, 43, 203-208; Nielsen, V. G.; Matika, R. W. Hum. Exp. Toxicol. 2017, 36, 727-733; Nielsen, V. G.; et al., Toxins 2018, 10, 322; Nielsen, V. G.; et al., Biometals 2018, 31, 51-59; Nielsen, V. G.; Frank, N. et al., Biometals 2018, 31, 951-959; Nielsen, V. G.; et al., Toxins 2019, 11, 94; Nielsen, V. G.; Frank, N. Hum Exp. Toxicol. 2019, 38, 216-226; Nielsen, V. G. J. Thromb. Thrombolysis 2019, 48, 256-262; Nielsen, V. G.; et al., Blood Coagul. Fibrinolysis 2019, 30, 379-384; Nielsen, V. G. J. Thromb. Thrombolysis 2019, 47, 73-79; Gessner, G.; et al., Eur. J. Pharmacol. 2017, 815, 33-41). […] The thrombelastographic model describes coagulation kinetics with the following three variables: time to maximum thrombus generation (TMRTG, minutes—a measure of time to onset of coagulation), maximum rate of thrombus generation (MRTG, dynes/cm^2/s—a measure of the velocity of clot growth) and total thrombus generation (TTG, dynes/cm^2—a measure of clot strength).\nThe volumes of subsequently described plasmatic and other additives summed to a final volume of 360 μL. Samples were composed of 320 μL of plasma; 16.4 μL of PBS, 20 μL of 200 mM CaCl2), and 3.6 μL of PBS, RuCl3, or venom solution mixture, which were pipetted into a disposable cup in a Thrombelastograph® hemostasis system (Model 5000, Haemonetics Inc., Braintree, MA, USA) at 37° C., and then rapidly mixed by moving the cup up against and then away from the plastic pin five times. The PBS, RuCl3, or venom solution mixtures was always the last constituent added prior to mixing and data collection. The following viscoelastic parameters described previously (see, Nielsen, V. G.; et al., Biometals 2016, 29, 913-919; Nielsen, V. G.; Losada, P. A. Basic Clin. Pharmacol. Toxicol. 2017, 120, 207-212; Nielsen, V. G.; Frank, N. J. Thromb. Thrombolysis 2019, 47, 533-539; Nielsen, V. G.; Bazzell, C. M. J. Thromb. Thrombolysis 2017, 43, 203-208; Nielsen, V. G.; Matika, R. W. Hum. Exp. Toxicol. 2017, 36, 727-733; Nielsen, V. G.; et al., Toxins 2018, 10, 322; Nielsen, V. G.; et al., Biometals 2018, 31, 51-59; Nielsen, V. G.; Frank, N. et al., Biometals 2018, 31, 951-959; Nielsen, V. G.; et al., Toxins 2019, 11, 94; Nielsen, V. G.; Frank, N. Hum Exp. Toxicol. 2019, 38, 216-226; Nielsen, V. G. J. Thromb. Thrombolysis 2019, 48, 256-262; Nielsen, V. G.; et al., Blood Coagul. Fibrinolysis 2019, 30, 379-384; Nielsen, V. G. J. Thromb. Thrombolysis 2019, 47, 73-79) were measured: time to maximum rate of thrombus generation (TMRTG): this is the time interval (minutes) observed prior to maximum speed of clot growth; maximum rate of thrombus generation (MRTG): this is the maximum velocity of clot growth observed (dynes/cm^2/s); and total thrombus generation (TTG, dynes/cm^2), the final viscoelastic resistance observed after clot formation. Data were collected until the clot strength reached its final plateau (maximum amplitude) that was stable for 3 min."}, "[1]": {"tested_on": "Heloderma suspectum venom", "assay": "Thrombelastography in human plasma of venom procoagulant activity after isolated exposure of venom to compounds", "type": "biochemical", "settings": "venom 10 μg/ml in plasma", "description": "The volumes of subsequently described plasmatic and other additives summed to a final volume of 360 μl. Samples were composed of 320 μl of plasma; 16.4 μl of PBS, 20 μl of 200 mM CaCl2), and 3.6 μl of PBS or venom mixture, which were pipetted into a disposable cup in a Thrombelastograph® hemostasis system (Model 5000, Haemonetics Inc., Braintree, MA, USA) at 37° C., and then rapidly mixed by moving the cup up against and then away from the plastic pin five times. The following viscoelastic parameters described previously (see, Nielsen, V. G. J Thromb Thrombolysis 2019, 47, 73-79; Gessner, G.; et al., Eur J Pharmacol 2017, 815, 33-41; Nielsen, V. G.; Wagner, M. T.; Frank, N. Int J Mol Sci 2020, 21, 2082; Lazid, D.; et al., Dalton Trans 2016, 45, 4633; Hanif, M.; et al., ChemPlusChem 2017, 82, 841-847) were measured: time to maximum rate of thrombus generation (TMRTG): this is the time interval (minutes) observed prior to maximum speed of clot growth; maximum rate of thrombus generation (MRTG): this is the maximum velocity of clot growth observed (dynes/cm2/second); and total thrombus generation (TTG, dynes/cm2), the final viscoelastic resistance observed after clot formation.\nH. suspectum. This venom was exposed to 0 or 1 mM CORM-3 in the presence of 0 or 100 μM RuCl3 in PBS for at least 5 minutes at room temperature prior to placement into plasma followed immediately with commencement of thrombelastographic analysis. The final concentration of this venom in plasma was 10 μg/ml.\nGiven the aforementioned, the experimental conditions utilized were: 1) V condition—venom in PBS; 2) Ru(II) condition—venom exposed to CORM-2 or CORM-3; 3) Ru(III) condition—venom exposed to RuCl3; 4) Ru(II+III) condition—venom exposed to CORM-2 or CORM-3 and RuCl3 simultaneously; 5) Pt(II) condition—venom exposed to carboplatin; and 6) Pt+Ru condition—venom exposed to carboplatin and CORM-2. After the 5 minute period at room temperature, 3.6 μl of one of these solutions was added to the plasma sample in the plastic thrombelastograph cup."}, "[2]": {"settings": "venom exposed 5 min to 100 μM RuCl3 in PBS"}, "[3]": {"settings": "1 mM CORM-3, 100 μM RuCl3 or both"}}, "data": [{"molecule": "[C-]#[O+].[C-]#[O+].[C-]#[O+].[C-]#[O+].[C-]#[O+].[C-]#[O+].[Cl][Ru][Cl].[Cl][Ru][Cl]", "note": "[CORM-2, tricarbonyldichlororuthenium(II) dimer]", "values": [{"measurement": "procoagulant activity of venom", "setting": "Atheris nitschei venom; venom exposed 5 min to 100 μM CORM-2 in 5% human albumin", "result": "uninhibited"}, {"measurement": "procoagulant activity of venom", "setting": "Atheris nitschei venom; venom exposed 5 min to 100 μM CORM-2 in PBS", "result": "significantly attenuated"}]}, {"molecule": "[Cl][Ru]([Cl])[Cl]", "note": "[RuCl3, ruthenium(III) chloride]", "values": [{"measurement": "procoagulant activity of venom / coagulation kinetic parameters", "setting": "[1]; venom exposed ≥5 min in PBS to 1 mM CORM-3, 100 μM RuCl3 or both", "result": "no significant changes in any of the coagulation kinetic parameters"}, {"measurement": "maximum rate of thrombus generation (MRTG)", "setting": "Atheris nitschei venom; [2]", "result": "significant increase"}, {"measurement": "time to maximum rate of thrombus generation (TMRTG)", "setting": "Atheris nitschei venom; [2]", "result": "very diminutive increase"}, {"measurement": "total thrombus generation (TTG)", "setting": "Atheris nitschei venom; [2]", "result": "significant increase"}]}, {"molecule": "Tricarbonylchloro(glycinato)ruthenium [CORM-3]", "values": [{"measurement": "maximum rate of thrombus generation (MRTG)", "setting": "[1]; [3]", "result": "no change"}, {"measurement": "time to maximum rate of thrombus generation (TMRTG)", "setting": "[1]; [3]", "result": "significant increase"}, {"measurement": "total thrombus generation (TTG)", "setting": "[1]; [3]", "result": "no change"}]}]}
